# Tested on: THP-1-derived macrophages
# Test: Cytotoxicity against THP-1 macrophages (MTT)
# Type: cell-based, human
# Details: 100 μM
# Procedure: The effect of compounds 3k, 4h, 4m, and 4o on THP-1-derived macrophages was assessed by the colorimetric MTT assay [3-(4,5-dimethylthiazol-2-yl)-2,5-diphenyl tetrazolium bromide]. Briefly, 1 × 10^6 THP-1 cells were differentiated into macrophages by addition of 20 ng/mL of phorbol-myristate 13-acetate (PMA, Sigma-Aldrich) for 18 h, followed by replacement with a fresh medium and further incubation for 24 h. The cells were incubated with compounds ranging from 100 to 3 μM after dilution in the RPMI complete medium containing a maximum amount of 1% DMSO. After incubation for 72 h at 37 °C and 5% CO2, the medium was removed and 0.5 mg/mL MTT solution was added. The plates were incubated for 4 additional hours to allow viable cells to convert MTT into a purple formazan product. Solubilization of formazan crystals was achieved by addition of 2-propanol, and absorbance was read at 570 nm using a Synergy 2 multi-mode reader (BioTek).
smiles,measurement,value
Nc1nnc(NCc2ccc(-c3ccccc3)cc2)s1 [4m],toxicity in THP-1 cells alone vs combination with equimolar MTX,no increase in toxicity

# Reference: article PMC5623949, “Exploiting the 2-Amino-1,3,4-thiadiazole Scaffold To Inhibit Trypanosoma brucei Pteridine Reductase in Support of Early-Stage Drug Discovery” (ACS Omega, 2017)
